What was measured:
[1] = target: T1, Serine/threonine-protein kinase Nek2 (Homo sapiens) (UniProt P51955)
T1 sequence (whole entry): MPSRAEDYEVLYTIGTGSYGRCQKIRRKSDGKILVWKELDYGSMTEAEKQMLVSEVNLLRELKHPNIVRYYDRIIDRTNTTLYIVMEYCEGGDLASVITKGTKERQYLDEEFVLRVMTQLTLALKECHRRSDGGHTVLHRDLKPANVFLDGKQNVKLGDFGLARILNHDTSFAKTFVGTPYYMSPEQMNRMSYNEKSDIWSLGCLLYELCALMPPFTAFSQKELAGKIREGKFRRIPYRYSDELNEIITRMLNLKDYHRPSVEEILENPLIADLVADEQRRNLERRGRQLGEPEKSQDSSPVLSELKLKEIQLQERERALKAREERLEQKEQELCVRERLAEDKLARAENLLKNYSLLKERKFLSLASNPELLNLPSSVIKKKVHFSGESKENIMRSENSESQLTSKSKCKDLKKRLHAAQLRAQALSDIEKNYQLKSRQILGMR

[2] = target: Serine/threonine-protein kinase 16 (Homo sapiens) (UniProt O75716)
Sequence of Serine/threonine-protein kinase 16 (Homo sapiens) (O75716 whole entry): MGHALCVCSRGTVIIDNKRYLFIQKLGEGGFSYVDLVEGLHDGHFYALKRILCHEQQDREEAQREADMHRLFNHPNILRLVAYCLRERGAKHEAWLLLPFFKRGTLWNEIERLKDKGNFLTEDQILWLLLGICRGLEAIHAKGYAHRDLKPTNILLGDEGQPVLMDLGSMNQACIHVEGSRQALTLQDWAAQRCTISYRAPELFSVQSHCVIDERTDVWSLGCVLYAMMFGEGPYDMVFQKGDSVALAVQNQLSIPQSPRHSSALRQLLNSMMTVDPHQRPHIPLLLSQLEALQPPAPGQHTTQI

[3] = target: STE20-like serine/threonine-protein kinase (Homo sapiens) (UniProt Q9H2G2)
[4] = target: Serine/threonine-protein kinase 25 (Homo sapiens) (UniProt O00506)
Sequence of Serine/threonine-protein kinase 25 (Homo sapiens) (O00506 whole entry, looked up): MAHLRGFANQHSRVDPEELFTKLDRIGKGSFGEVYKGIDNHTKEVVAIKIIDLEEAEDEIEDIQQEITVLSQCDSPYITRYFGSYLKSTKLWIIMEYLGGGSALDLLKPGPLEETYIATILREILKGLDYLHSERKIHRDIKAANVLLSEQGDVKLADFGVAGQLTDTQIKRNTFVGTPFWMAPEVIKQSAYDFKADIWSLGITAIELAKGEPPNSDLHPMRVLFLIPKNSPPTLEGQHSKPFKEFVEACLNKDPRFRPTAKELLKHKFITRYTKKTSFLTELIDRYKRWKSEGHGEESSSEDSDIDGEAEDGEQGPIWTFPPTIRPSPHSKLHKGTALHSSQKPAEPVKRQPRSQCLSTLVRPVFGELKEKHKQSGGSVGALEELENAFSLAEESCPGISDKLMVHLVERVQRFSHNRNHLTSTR

[5] = target: T2, 3-phosphoinositide-dependent protein kinase 1 (Homo sapiens) (UniProt O15530)
T2 sequence (whole entry): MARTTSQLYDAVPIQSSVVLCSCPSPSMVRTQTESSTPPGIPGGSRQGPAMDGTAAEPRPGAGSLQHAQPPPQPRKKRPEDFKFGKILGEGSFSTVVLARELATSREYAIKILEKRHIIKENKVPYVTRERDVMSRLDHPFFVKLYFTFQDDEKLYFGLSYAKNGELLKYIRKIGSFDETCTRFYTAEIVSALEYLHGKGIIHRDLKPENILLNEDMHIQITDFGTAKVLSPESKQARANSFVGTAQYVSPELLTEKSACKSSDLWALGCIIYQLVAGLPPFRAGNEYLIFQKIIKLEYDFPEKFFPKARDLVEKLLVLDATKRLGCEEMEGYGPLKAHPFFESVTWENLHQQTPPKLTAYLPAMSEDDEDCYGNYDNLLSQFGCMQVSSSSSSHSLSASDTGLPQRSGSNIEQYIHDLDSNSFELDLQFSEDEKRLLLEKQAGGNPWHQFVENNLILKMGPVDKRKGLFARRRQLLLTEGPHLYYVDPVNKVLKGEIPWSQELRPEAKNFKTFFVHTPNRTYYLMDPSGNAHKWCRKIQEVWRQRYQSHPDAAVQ

[6] = target: Calcium/calmodulin-dependent protein kinase type II subunit alpha (Homo sapiens) (UniProt Q9UQM7)
[7] = target: Cyclin-dependent kinase 6 (Homo sapiens) (UniProt Q00534)
[8] = target: Serine/threonine-protein kinase 10 (Homo sapiens) (UniProt O94804)
Sequence of Serine/threonine-protein kinase 10 (Homo sapiens) (O94804 whole entry, looked up): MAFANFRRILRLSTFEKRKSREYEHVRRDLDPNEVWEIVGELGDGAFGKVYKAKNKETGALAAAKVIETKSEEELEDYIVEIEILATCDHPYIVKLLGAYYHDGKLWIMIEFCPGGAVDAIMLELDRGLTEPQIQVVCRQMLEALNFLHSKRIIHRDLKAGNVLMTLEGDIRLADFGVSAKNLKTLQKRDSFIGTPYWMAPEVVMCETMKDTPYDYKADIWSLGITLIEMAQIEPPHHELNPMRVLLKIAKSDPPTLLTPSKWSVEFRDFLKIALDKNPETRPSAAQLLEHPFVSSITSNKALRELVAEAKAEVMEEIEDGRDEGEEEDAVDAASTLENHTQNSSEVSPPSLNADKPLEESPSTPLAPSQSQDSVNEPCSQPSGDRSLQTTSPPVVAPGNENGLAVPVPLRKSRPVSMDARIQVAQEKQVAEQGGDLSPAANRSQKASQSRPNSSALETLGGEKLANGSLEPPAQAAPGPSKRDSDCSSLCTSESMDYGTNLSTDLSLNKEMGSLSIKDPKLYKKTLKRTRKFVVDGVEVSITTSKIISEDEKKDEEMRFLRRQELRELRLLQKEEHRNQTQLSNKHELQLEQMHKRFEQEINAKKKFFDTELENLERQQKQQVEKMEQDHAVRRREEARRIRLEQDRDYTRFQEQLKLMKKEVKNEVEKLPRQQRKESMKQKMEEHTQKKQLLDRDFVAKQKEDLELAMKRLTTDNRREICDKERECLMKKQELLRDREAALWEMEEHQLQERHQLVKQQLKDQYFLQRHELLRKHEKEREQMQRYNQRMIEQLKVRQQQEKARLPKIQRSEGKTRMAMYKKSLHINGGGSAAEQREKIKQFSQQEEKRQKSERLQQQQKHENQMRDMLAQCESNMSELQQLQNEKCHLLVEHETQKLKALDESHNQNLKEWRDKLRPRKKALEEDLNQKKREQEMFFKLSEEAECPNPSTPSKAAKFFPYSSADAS

[9] = target: Ribosomal protein S6 kinase alpha-3 (Homo sapiens) (UniProt P51812)
Sequence of Ribosomal protein S6 kinase alpha-3 (Homo sapiens) (P51812 whole entry): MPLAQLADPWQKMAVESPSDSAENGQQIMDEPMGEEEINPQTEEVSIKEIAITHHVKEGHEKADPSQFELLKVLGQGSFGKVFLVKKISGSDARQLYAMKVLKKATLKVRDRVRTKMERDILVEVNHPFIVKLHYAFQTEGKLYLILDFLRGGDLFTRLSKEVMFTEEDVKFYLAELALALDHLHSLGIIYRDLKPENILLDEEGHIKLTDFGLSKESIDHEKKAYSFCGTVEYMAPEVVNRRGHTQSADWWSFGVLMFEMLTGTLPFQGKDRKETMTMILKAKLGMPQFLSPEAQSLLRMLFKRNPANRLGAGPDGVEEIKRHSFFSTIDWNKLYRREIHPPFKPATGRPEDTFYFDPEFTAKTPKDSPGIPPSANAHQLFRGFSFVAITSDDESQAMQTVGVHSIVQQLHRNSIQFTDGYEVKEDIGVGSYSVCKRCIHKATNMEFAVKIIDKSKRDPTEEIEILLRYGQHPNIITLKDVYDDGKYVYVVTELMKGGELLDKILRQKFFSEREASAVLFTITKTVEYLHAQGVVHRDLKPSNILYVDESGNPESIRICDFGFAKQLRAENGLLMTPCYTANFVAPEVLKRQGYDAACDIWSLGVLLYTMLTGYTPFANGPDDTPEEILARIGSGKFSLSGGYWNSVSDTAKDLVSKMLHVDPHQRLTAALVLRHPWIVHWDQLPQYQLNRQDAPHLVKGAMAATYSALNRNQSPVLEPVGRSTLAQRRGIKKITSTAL

[10] = target: T3, Calcium/calmodulin-dependent protein kinase type IV (Homo sapiens) (UniProt Q16566)
T3 sequence (whole entry): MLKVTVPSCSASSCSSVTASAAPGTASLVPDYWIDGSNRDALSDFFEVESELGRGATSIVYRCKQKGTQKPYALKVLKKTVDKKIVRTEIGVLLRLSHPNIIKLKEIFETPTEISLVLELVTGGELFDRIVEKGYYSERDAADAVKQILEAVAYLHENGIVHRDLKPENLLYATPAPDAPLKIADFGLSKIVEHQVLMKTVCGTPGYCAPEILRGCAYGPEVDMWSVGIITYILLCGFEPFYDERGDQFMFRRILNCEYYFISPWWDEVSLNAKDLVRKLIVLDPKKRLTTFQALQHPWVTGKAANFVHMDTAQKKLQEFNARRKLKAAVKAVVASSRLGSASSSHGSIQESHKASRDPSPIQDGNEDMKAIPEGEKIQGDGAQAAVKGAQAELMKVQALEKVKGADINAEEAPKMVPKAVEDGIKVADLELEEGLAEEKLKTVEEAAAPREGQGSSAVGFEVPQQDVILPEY

[11] = target: Serine/threonine-protein kinase Nek6 (Homo sapiens) (UniProt Q9HC98)
Sequence of Serine/threonine-protein kinase Nek6 (Homo sapiens) (Q9HC98 whole entry): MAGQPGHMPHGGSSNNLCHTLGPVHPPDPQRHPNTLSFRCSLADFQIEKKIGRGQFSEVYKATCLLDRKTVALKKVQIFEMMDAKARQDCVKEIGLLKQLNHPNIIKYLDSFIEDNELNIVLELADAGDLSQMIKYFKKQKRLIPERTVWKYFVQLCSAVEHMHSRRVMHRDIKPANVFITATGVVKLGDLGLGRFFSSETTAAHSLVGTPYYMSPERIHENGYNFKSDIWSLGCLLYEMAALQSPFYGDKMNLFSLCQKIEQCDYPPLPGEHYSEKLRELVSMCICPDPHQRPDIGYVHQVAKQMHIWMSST

[12] = target: Calcium/calmodulin-dependent protein kinase type II subunit gamma (Homo sapiens) (UniProt Q13555)
Sequence of Calcium/calmodulin-dependent protein kinase type II subunit gamma (Homo sapiens) (Q13555 whole entry): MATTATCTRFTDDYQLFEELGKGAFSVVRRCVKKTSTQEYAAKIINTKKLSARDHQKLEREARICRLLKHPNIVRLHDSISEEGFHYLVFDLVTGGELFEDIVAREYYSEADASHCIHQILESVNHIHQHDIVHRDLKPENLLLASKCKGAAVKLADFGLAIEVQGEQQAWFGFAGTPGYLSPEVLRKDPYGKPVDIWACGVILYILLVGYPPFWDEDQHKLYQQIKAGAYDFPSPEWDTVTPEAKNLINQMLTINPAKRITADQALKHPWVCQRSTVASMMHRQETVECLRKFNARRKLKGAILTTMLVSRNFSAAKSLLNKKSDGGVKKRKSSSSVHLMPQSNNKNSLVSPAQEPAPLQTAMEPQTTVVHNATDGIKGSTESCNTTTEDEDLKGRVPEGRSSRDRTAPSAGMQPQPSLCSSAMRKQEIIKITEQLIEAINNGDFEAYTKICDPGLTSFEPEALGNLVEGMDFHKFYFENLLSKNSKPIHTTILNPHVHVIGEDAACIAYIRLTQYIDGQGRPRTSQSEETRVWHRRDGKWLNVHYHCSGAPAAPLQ

[13] = target: Dual specificity protein kinase CLK1 (Homo sapiens) (UniProt P49759)
Sequence of Dual specificity protein kinase CLK1 (Homo sapiens) (P49759 whole entry, looked up): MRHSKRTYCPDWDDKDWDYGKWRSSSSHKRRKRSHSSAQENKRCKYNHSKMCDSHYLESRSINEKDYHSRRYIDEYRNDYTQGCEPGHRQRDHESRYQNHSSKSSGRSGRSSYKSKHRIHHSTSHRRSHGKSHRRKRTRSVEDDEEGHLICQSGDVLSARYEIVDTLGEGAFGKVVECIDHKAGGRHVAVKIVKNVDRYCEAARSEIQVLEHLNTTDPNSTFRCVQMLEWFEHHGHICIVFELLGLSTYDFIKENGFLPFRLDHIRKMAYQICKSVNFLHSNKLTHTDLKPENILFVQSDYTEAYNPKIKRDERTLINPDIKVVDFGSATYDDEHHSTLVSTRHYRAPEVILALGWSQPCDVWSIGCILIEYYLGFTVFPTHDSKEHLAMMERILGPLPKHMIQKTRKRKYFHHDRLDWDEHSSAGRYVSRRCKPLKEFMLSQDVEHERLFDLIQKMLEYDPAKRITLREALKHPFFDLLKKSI

[14] = target: Tyrosine-protein kinase JAK1 (Homo sapiens) (UniProt P23458)
[15] = target: Serine/threonine-protein kinase pim-3 (Homo sapiens) (UniProt Q86V86)
[16] = target: Serine/threonine-protein kinase PAK 6 (Homo sapiens) (UniProt Q9NQU5)
Sequence of Serine/threonine-protein kinase PAK 6 (Homo sapiens) (Q9NQU5 whole entry, looked up): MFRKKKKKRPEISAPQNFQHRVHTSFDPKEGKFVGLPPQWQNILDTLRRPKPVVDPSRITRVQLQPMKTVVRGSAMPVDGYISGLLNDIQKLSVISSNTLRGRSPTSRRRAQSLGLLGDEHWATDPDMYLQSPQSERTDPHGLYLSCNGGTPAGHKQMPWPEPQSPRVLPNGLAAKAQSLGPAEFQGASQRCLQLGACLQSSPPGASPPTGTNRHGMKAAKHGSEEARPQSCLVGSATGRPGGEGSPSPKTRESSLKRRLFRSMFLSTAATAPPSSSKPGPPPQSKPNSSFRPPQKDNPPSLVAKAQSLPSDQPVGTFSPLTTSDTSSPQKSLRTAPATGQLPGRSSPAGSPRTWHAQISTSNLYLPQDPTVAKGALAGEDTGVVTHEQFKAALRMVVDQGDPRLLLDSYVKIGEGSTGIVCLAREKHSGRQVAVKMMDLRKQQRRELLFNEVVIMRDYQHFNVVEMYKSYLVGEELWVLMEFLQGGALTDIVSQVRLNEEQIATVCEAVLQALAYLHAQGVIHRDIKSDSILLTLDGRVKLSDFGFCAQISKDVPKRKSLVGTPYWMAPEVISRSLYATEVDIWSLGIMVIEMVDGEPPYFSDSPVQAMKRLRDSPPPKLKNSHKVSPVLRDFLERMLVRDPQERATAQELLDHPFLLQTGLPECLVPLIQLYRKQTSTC

[17] = target: T4, Lymphokine-activated killer T-cell-originated protein kinase (Homo sapiens) (UniProt Q96KB5)
T4 sequence (whole entry): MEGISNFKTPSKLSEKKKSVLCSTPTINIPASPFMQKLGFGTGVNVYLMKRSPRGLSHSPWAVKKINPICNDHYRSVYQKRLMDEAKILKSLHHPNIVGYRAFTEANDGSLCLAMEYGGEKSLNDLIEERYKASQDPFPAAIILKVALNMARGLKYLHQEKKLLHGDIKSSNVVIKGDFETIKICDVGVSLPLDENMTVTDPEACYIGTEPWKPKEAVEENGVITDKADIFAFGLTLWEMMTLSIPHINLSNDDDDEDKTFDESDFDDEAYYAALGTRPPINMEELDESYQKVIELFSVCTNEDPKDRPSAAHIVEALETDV

[18] = target: Serine/threonine-protein kinase 26 (Homo sapiens) (UniProt Q9P289)
Sequence of Serine/threonine-protein kinase 26 (Homo sapiens) (Q9P289 2-416 limits assumed): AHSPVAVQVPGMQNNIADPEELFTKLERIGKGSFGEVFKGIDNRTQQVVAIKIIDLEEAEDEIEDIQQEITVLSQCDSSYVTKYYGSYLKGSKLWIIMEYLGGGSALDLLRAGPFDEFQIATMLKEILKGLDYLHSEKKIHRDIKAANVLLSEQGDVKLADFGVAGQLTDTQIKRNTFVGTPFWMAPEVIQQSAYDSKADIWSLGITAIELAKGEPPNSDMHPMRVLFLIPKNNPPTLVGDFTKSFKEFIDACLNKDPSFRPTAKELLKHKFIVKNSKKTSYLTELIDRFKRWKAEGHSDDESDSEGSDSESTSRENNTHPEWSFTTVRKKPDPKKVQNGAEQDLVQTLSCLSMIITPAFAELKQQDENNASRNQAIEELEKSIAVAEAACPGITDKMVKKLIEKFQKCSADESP

Compound	ΔTm [1] [°C]	ΔTm [2] [°C]	ΔTm [3] [°C]	ΔTm [4] [°C]	ΔTm [5] [°C]	ΔTm [6] [°C]	ΔTm [7] [°C]	ΔTm [8] [°C]	ΔTm [9] [°C]	ΔTm [10] [°C]	ΔTm [11] [°C]	ΔTm [12] [°C]	ΔTm [13] [°C]	ΔTm [14] [°C]	ΔTm [15] [°C]	ΔTm [16] [°C]	ΔTm [17] [°C]	ΔTm [18] [°C]
O=c1c(O)c(-c2ccc(O)c(O)c2)oc2cc(O)cc(O)c12 [QUERCETIN]	3.4	4.8	5.7	5.3	1.1	4.1	1.9	5.5	6.6	6.7	1.6	4.9	7.7	8.2	8.8	1.1	0.4	4.4
CC[C@H](CO)Nc1nc(NCc2ccccc2)c2ncn(C(C)C)c2n1 [SELICICLIB]	0.7	–	0.2	0.3	0.2	–	0.2	–	1.4	0.2	–	0.3	2.1	0.1	0.5	0.5	0.8	0.6
C[S+]([O-])c1ccc(-c2nc(-c3ccc(F)cc3)c(-c3ccncc3)[nH]2)cc1 (configuration not stated) [SB-203580]	0.3	0.4	–	0.9	-0.1	0.3	-0.1	2.7	-0.2	0	0.2	0	-0.3	2.3	0	0	0.2	-0.5
NS(=O)(=O)c1ccc(Nc2nc(OCC3CCCCC3)c3nc[nH]c3n2)cc1	4.9	4.4	2.2	–	-0.1	0.6	4.9	4.1	1.4	0.7	0.1	0.3	3.9	9.5	1.3	1.7	0.9	2.9
COc1ccc(S(=O)(=O)N(CCO)c2ccccc2CN(C)C/C=C/c2ccc(Cl)cc2)cc1	-0.1	0.5	1.1	–	0.4	-0.7	-0.3	0.2	0.7	-0.3	0.3	-0.6	0.1	-0.5	0.5	-0.8	-0.1	0.1
COc1nccc(-c2c(-c3ccc(F)cc3)ncn2[C@H]2CC[C@H](O)CC2)n1	1	-0.2	1.9	–	0	1.5	0.1	1.9	0.2	0.2	-0.3	0.1	1.7	0.8	-0.2	-0.3	0.7	-1.4
O=C(O)c1cc(N(Cc2ccccc2O)Cc2cc(O)ccc2O)ccc1O [LAVENDUSTIN A]	1.3	2.6	-0.7	–	0.6	1.3	0.4	0.1	1.7	0.5	0.4	-0.1	0.5	0.4	0.4	-0.3	0	2.1
Nc1cccc(-c2cc3c(Oc4cccc(O)c4)ncnc3[nH]2)c1	2.6	3.5	6.7	–	-0.1	0.5	0.9	5.9	5.7	0.2	-1.3	0.1	1.8	4.3	0.3	1.3	0.6	0.8
Cc1[nH]c(/C=C2\C(=O)Nc3ccc(S(=O)(=O)N(C)c4cccc(Cl)c4)cc32)c(C)c1C(=O)N1CCN(C)CC1	0.1	0.6	2.4	–	-0.6	3	-0.4	1.8	11.3	-0.1	0.4	0.6	2.1	3.4	9.7	2	0.1	5
COc1ccc2c(c1)/C(=C/c1cnc[nH]1)C(=O)N2 [SU-9516]	1.2	4.4	3.3	6.4	0.2	1	3	3.5	–	1.5	0.1	1	3.4	8.4	2.3	2.3	0	4.2
CN(C)C[C@@H]1CCn2cc(c3ccccc32)C2=C(C(=O)NC2=O)c2cn(c3ccccc23)CCO1 [RUBOXISTAURIN]	1.5	0.8	7	–	0.2	3.1	0.5	7.2	0.9	2.9	-0.6	1.6	5.4	-0.5	5.8	0.8	0.9	-2
O=C1Cc2c([nH]c3ccc(Br)cc23)-c2ccccc2N1 [KENPAULLONE]	1.3	0.7	1.7	2.7	-0.8	0	0.7	2.2	–	0.3	0.4	-0.2	1.7	1.7	4.6	3.7	-2	1.4
